Results on four molecules are retold here after patent publication US6448283B1, “Methods for preventing/treating damage to sensory hair cells and cochlear neurons” (Cephalon, Inc., priority 1998, dated 2002).

The test system of series [1] is outer hair cells in organotypic cultures of the neonatal organ of Corti. Kind of series: Hair cell counts in neomycin-exposed cochlear explant cultures. It counts as cell-based, rat. As for the experimental part: (§1) The basal half of cochleas containing the basal and middle turns were dissected from postnatal day 2 Wistar rats. The cultures were maintained on Nuclepore filters (pore size […]; Pleasanton, Calif.) placed on a metal grid in F12 medium (Life Technologies, Gaithersburg, Md.) containing 15% fetal bovine serum (Life Technologies). After a 2-hour-long stabilization period, explants were exposed to 100 mM neomycin sulfate (Sigma, St Louis, Mo.) for 48 hr.
(§2) Explants were fixed with 4% paraformaldehyde/0.5% glutaraldehyde in phosphate buffered saline (PBS), pH 7.4, for 30 min and dissected for surface preparations. They were stained with a 1:100 dilution of rhodamine-phalloidin in PBS containing 0.25% Triton X-l 00 overnight at 4° C. and mounted in Vectashield (Vector). Outer hair cell (OHC) numbers were quantified with a Zeiss Axiovert 100/135 epifluorescent microscope (Germany) connected to a Bio-Rad MRC-1024 confocal laser scanning system (Richmond, Calif.). Hair cells were characterized as missing if no stereocilia and cuticular plate were observed. Numbers of OHCs were evaluated using a 40×objective lens and an ocular grid. Nine to 1 fields filled by 30 OHCs in each of the 3 rows (when all of them were present) were studied from each explant. Basal and middle coils were analyzed separately. Three separate experiments, each including 4 explants of both conditions (neomycin and neomycin plus Formula II) were analyzed.
as §1, with “μM” for “mM”, “hr. The compounds of Formula I and the compound of Formula I were added at 500 nM at the time of initiation of the cultures and every 12 hr thereafter. Neomycin plus vehicle was used as a control.” for “hr.”
as §2, with “X-100” for “X-l 00”, “40x objective” for “40×objective”, “Several” for “Nine to 1”, “separately.” for “separately. Three separate experiments, each including 4 explants of both conditions (neomycin and neomycin plus Formula II) were analyzed.”

Series [2] has as its system cochlear ganglion neurons. The note with it: Ylikoski et al., 1998; cited from earlier work.
[3] abbreviates: 100 mM neomycin (so in the source) alone for 48 hr, n=12.

With neomycin sulfate [reference compound], in series [1] (setting [3]), the “OHCs in the basal turn lost” value is given as “Approximately 90%” and the “OHCs in the middle turn lost” value was approximately 25%.

Turning to `O=C1NC(=O)c2c1c1c(c3[nH]c4ccccc4c23)Cc2ccccc2-1` [Example 8, 6H,12H,13H-Indeno[2,3-a]pyrrolo[3,4-c]carbazole-5,7(5H, 7H)-dione], the viability at 0.5 µM in series [1] (Rattus norvegicus, 48 h, compound 500 nM plus 100 μM neomycin 48 hr, NEO = neomycin plus vehicle, each line a separate count, read-out: % preserved) stood at 21%.

For “NGF: nerve growth factor, negative control in cochlear neuron cultures”, the “survival of dissociated cochlear neurons of the perinatal rat” value in series [2] was “does not have any effect or its effect is very weak”.

B1: NT-3: neurotrophic factor, positive comparator in cochlear neuron cultures (protein, UniProt P20783 139-257, looked up)
Neurotrophin-3: YAEHKSHRGEYSVCDSESLWVTDKSSAIDIRGHQVTVLGEIKTGNSPVKQYFYETRCKEARPVKNGCRGIDDKHWNSQCKTSQTYVRALTSENNKLVGWRWIRIDTSCVCALSRKIGRT
For B1, the “survival of dissociated cochlear neurons of the perinatal rat” value in series [2] is “most potent neurotrophic factor promoting survival”.
